Here are results for 5 molecules from PMC12250965, “Design and Synthesis of Sulfonium and Selenonium Derivatives Bearing 3′,5′-O-Benzylidene Acetal Side Chain Structure as Potent α-Glucosidase Inhibitors” (Molecules, 2025).

Values after ≈ are worked out from the molar mass of the structure shown. “Also recorded” adds a separate entry of the source. Like-named read-outs stand apart in the source and are kept apart here. Where only a bound is given, the exact number is not on record here.

The subject of data set [1] is LO2. The data set is described as follows: Cytotoxicity against normal cell line LO2. It is filed as cell-based. The following applies: Homo sapiens, L02. Here is the method:
(§1) The cytotoxicity of selected sulfonium salts (20a, 20c, and 10) was then evaluated via the 3-[4,5-dimethylthiazol-2-yl]-2,5-diphenyl-tetrazolium bromide (MTT) assay against different cell lines.
(§2) Compounds HELF LO2 Primary Hepatocyte
(§3) (1 picture or pasted object on this page, not shown here)

Data set [2] deals with HELF, a human embryonic lung fibroblast cell line. Description: MTT cytotoxicity assay on HELF cells. It is filed as cell-based. The conditions noted are these: for IC50: Homo sapiens, HELF, read-out: IC50 against normal cell line HELF; for cytotoxicity (MTT assay): different cell lines. How it is done:
as §1
Briefly, the HELF-adherent cells were cultured in a 96-well plate overnight in a CO2 environment at 37 °C. Supernatant was removed, and 100 μL serially diluted compounds with complete medium DMEM supplemented with 10% (v/v) fetal bovine serum, penicillin (100 units/mL), and streptomycin (100 μg/mL) were added to each well. After the incubation, the culture medium was aspirated carefully, and 50 μL of MTT solution (2mg/mL PBS) was added to each well and further incubated for 4h. After this, MTT solution was aspirated, and cells were PBS-washed once, and 100 μL of DMSO was added to dissolve the blue insoluble MTT formazan produced by the action of mitochondrial dehydrogenase. The plate was agitated at room temperature for 15 min and then read at 570 nm by using a microplate reader. The percentage of viable cells was calculated as the relative ratio of optical densities.
In general terms: Tetrazolium dyes change colour on reduction, which living cells bring about.

Data set [3] concerns Primary Hepatocyte. Description: Cytotoxicity against Primary Hepatocyte. It counts as cell-based. Here is the method:
as §1, §2, §3

The subject of data set [4] is rat intestinal maltase. The data set is described as follows: Inhibition-kinetic study (Lineweaver–Burk), maltase. It is filed as biochemical. The conditions noted are these: for type of inhibition, maltase: Lineweaver–Burk plots; for Ki Maltase (Km = 3.0 mM): small intestinal α-glucosidase, Lineweaver–Burk. Here is the method: (§4) In order to explore the inhibitory mechanism of the α-glucosidase by this family of compounds, enzyme kinetic assays were conducted on 20a, 20c, and 10, followed by a detailed kinetic analysis using the Lineweaver–Burk plots. (Figure 3) The small intestinal brush border membrane vesicles were incubated with varying concentrations of maltose (3.27 mg/mL) for maltase assays and sucrose (52.37 mg/mL) for sucrase assays.
(§5) For kinetic analyses of maltase and sucrase by compounds (20a, 20c, and 10), the enzyme and test samples (1.0 mg/mL for maltase and 0.2 mg/mL for sucrase) were incubated with increasing concentrations of maltose (2.5, 5, 10, 20, 50, 100 μM) and sucrose (5, 10, 20, 50, 100, 1000 μM) at 37 °C for 30 min. The tube was immediately immersed in boiling water for 2 min to stop the reaction, then cooled with water. The glucose concentration was determined by the glucose-oxidase method. […] The Lineweaver–Burk equation follows as: 1/V=Km/Vmax×[…]
(§6) Ki values for each inhibitor were determined by the equation: Ki=[I]×Km/[[…]−Km]

For data set [5], the target named is rat intestinal maltase. Description: In vitro α-glucosidase inhibition assay, rat intestinal maltase. It is filed as biochemical. The following applies: for IC50: rat small intestinal brush border membrane vesicles, maltose substrate, mean ± SD (n = 3), read-out: IC50 against maltase. How it is done:
(§7) The testing method previously described was modified and used. Thus, rat small intestinal brush border membrane vesicles were first prepared, and its suspension in 0.1 M maleate buffer (pH = 6.0) was used as small intestinal α-glucosidases of maltase and sucrase. A test compound was dissolved in dimethylsulfoxide (DMSO), and the resulting solution was diluted with 0.1 M maleate buffer to prepare the test compound solution (concentration of DMSO: 10%). The substrate solution in maleate buffer ([…], 50 μL), a test compound solution (25 μL), and the enzyme solution (25 μL) were mixed and incubated at 37 °C for 30 min. After incubation, the solution was immediately heated by boiling water for 2 min to stop the reaction, and the solution was mixed with water (150 μL). Glucose concentration was determined by the glucose-oxidase method. […] The IC50 value was determined graphically by a plot of percent inhibition versus log of the test compound.

Data set [6] addresses T1, rat intestinal sucrase (Rattus norvegicus, UniProt P23739).
T1 construct: rat small intestinal brush border membrane vesicles were first prepared; from tissue; host or cells: rat small intestine, brush border membrane vesicles
Description: Inhibition-kinetic study (Lineweaver–Burk), sucrase. It counts as biochemical. The following applies: for type of inhibition, sucrase: Lineweaver–Burk plots. How it is done: as §4, §5, §6

The target of data set [7] is T1, rat intestinal sucrase. The data set is described as follows: In vitro α-glucosidase inhibition assay, rat intestinal sucrase. It is filed as biochemical. Here is the method: as §7
Data set [8] has as its system sucrose-loaded mice. The data set is described as follows: Sucrose loading test (hypoglycemic effect). The conditions noted are these: sucrose loading […] p.o. It is filed as in vivo, ICR mice. How it is done: Research has shown a strong association between the 2 h postprandial blood glucose level and the risk of cardiovascular events, diabetic microvascular complications such as retinopathy, and the progression of macrovascular diseases. […] Considering this underlying pathological process, α-glucosidase inhibitors, which efficiently regulate postprandial glucose fluctuations, hold significant therapeutic promise for alleviating diabetes-related complications. […] Subsequently, doses were reduced to 1.0 mg/kg.
(§8) The animal experimental protocols in this study were approved by the Experimental Animal Center of Shanghai Institute of Materia Medica (Shanghai, China). Male ICR (Institute of Cancer Research) mice (29−33 g) after an overnight fast were used for acute maltose and sucrose loading tests. In the maltose loading test, maltose (2.0 mpk of body weight) and the inhibitors and voglibose were dissolved in distillation−distillation water and administered to the mice via a stomach tube. A control group was loaded with distillation−distillation water. In the sucrose loading test, sucrose (2.5 g/kg of body weight) and the inhibitor miglitol were dissolved in distillation−distillation water and administered to the mice via a stomach tube. A control group was loaded with distillation−distillation water. Blood samples for glucose measurements were obtained from the tail vein at 0, 15, 30, 60, and 120 min after maltose and sucrose loading. The blood glucose levels were measured by a portable kit, StatStrip Xpress (Nova Biomedical Co., Ltd., Waltham, MA, USA). The AUC over was calculated by the trapezoidal method.

Data set [9] deals with rat intestinal maltase. The conditions noted are these: read-out: IC50 against maltase (converted), cited from earlier work.
Data set [10] concerns the target T1, rat intestinal sucrase. The following applies: literature value; read-out: IC50 against sucrase (converted); cited from earlier work.
Data set [11] relates to maltose-loaded mice. The data set is described as follows: Maltose loading test (hypoglycemic effect). It is filed as in vivo, ICR mice. The following applies: maltose loading 2.0 g/kg, 1.0 mpk; for Declined Rate of Blood Glucose Levels, 60 min / Declined Rate of AUC: 1 mg/kg. How it is done: A maltose loading test on compounds 10, 20c, neoponkoranol, and positive control (voglibose) was conducted to further evaluate their in vivo hypoglycemic effects against maltase.
as §8, with “In the maltose loading test, maltose (2.0 mpk of body weight) and the inhibitors and voglibose were dissolved in distillation−distillation water and administered to the mice via a stomach tube.” left out

Where [12] appears, read: rat small intestinal brush border membrane vesicles, sucrose substrate, mean ± SD (n = 3), read-out: IC50 against sucrase.

T1 sequence (P23739 whole entry): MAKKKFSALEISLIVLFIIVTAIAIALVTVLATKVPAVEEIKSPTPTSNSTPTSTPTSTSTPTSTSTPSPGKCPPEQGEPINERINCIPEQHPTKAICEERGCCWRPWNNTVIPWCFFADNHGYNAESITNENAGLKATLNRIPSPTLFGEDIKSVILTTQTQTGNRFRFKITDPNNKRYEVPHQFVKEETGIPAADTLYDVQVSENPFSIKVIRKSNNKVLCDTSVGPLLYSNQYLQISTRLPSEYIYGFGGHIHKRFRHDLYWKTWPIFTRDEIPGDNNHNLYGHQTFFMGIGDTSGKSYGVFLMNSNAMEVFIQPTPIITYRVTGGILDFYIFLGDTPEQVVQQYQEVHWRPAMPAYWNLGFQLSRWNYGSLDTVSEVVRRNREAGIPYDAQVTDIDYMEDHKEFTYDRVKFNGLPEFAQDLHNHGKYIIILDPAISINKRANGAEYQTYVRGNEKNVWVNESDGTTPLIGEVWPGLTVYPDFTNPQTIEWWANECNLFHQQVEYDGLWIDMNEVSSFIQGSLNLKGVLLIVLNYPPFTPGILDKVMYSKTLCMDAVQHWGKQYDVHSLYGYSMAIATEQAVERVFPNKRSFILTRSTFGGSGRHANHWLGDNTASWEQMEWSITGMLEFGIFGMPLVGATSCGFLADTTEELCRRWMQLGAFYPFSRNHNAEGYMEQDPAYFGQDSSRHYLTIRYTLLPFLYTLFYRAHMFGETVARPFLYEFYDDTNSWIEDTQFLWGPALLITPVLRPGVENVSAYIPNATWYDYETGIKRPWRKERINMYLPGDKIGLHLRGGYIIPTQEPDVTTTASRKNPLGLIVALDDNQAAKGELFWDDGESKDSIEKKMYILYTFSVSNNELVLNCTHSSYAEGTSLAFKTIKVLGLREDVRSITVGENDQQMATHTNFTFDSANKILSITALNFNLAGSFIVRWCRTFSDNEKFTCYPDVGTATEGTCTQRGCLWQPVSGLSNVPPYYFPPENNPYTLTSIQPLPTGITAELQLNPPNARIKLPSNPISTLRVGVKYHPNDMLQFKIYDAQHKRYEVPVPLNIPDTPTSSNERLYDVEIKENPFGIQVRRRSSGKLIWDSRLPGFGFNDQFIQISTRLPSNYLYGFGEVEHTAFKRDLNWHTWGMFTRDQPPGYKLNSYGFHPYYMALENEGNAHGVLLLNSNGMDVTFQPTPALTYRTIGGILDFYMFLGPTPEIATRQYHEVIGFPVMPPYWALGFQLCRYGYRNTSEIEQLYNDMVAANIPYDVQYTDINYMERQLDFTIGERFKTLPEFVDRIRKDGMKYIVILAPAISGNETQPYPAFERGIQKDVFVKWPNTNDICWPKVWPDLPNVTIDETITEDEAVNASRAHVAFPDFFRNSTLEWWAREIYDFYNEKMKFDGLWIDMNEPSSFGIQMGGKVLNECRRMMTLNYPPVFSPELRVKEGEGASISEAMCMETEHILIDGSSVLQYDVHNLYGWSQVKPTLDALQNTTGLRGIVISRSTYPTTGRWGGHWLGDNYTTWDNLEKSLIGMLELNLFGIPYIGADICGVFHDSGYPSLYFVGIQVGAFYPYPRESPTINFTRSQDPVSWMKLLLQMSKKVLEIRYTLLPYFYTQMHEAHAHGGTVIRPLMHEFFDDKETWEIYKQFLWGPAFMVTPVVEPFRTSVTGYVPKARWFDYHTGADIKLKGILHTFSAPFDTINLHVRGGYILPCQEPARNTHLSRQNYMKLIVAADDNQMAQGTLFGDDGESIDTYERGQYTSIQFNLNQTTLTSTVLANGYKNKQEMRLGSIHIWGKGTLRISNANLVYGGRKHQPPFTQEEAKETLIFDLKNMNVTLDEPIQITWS

In general, IC50 refers to the concentration that gives 50% inhibition. By Ki is commonly meant the equilibrium dissociation constant of an inhibitor or competing ligand from its target. As for `OC[C@@H]1[C@@H](O)[C@H](O)C[Se@+]1C[C@@H](O)[C@H]1OC(c2cccc(Cl)c2Cl)OC[C@H]1O.[Cl-]` (stereo partly drawn) [20a, (1S,2R,3S,4S)-1-((2S)-2-((4S,5R)-2-(2,3-Dichlorophenyl)-5-hydroxy-1,3-dioxan-4-yl)-2-hydroxyethyl)-3,4-dihydroxy-2-(hydroxymethyl)tetrahydro-1H-selenophen-1-ium chloride], the half-maximal inhibitory concentration (IC50) was greater than 500000 nM in data set [1]; greater than 500000 nM in data set [2]; greater than 500000 nM in [3]; 330 ± 150 nM in data set [5]; 190 ± 20 nM in data set [7]. The “cytotoxicity (MTT assay)” value in data set [2] is on record as “non-toxic”. The “type of inhibition, maltase” value in [4] is “fully competitive”. The “Ki Maltase (Km = 3.0 mM)” value in data set [4] is 0.94 µg/mL. For the same molecule, in [6], affinity was put at a Ki of 934 nM. Besides, the “type of inhibition, sucrase” value in data set [6] was “fully competitive”.

`C[C@H]1O[C@H](O[C@H]2[C@H](O)[C@@H](O)[C@@H](O[C@H]3[C@H](O)[C@@H](O)C(O)O[C@@H]3CO)O[C@@H]2CO)[C@H](O)[C@@H](O)[C@@H]1N[C@H]1C=C(CO)[C@@H](O)[C@H](O)[C@H]1O` (stereo partly shown) [acarbose]: the “Ki Maltase (Km = 3.0 mM)” value in [4] was found to be 1.98 µg/mL (≈ 3.07 µM). In data set [8] (20.0 mpk, 20 mg/kg), the “Declined Rate of Blood Glucose Levels, 15 min” value (“Declined Rate … 15 min” below) was found to be 45.7%; the “Declined Rate of Blood Glucose Levels, 30 min” value (“Declined Rate … 30 min” below) is on record as 48.4%; the “Declined Rate of AUC” value is given as 40.5%. The “Declined Rate of Blood Glucose Levels, 60 min” value (“Declined Rate … 60 min” below) in [8] (20.0 mpk) is given as 44.3%. In data set [5], the IC50 stood at 3500 nM. For the same molecule, the IC50 in data set [9] (literature value ^[a]) is 3200 nM.

For the molecule `OCC1C(O)C(O)C[S+]1CC(O)C1OC(c2ccccc2F)OCC1O` [19n, 1,4-Dideoxy-1,4-{(R)-[5-deoxy-1,3-O-(o-fluorophenylmethylene)-D-arabinitol-5-yl]episulfoniumylidene}-D-arabinitol chloride], the IC50 is 420 nM in data set [5], 840 nM in data set [10], 550 nM in data set [7] (setting [12]) and 400 nM in data set [9] (literature value).

For `OC[C@@H]1[C@@H](O)[C@H](O)C[Se@+]1C[C@@H](O)[C@H]1OC(c2cc(Cl)ccc2Cl)OC[C@H]1O.[Cl-]` (stereo partly drawn) [20c, (1S,2R,3S,4S)-1-((2S)-2-((4S,5R)-2-(2,5-Dichlorophenyl)-5-hydroxy-1,3-dioxan-4-yl)-2-hydroxyethyl)-3,4-dihydroxy-2-(hydroxymethyl)tetrahydro-1H-selenophen-1-ium chloride], the IC50 was greater than 500000 nM in data set [1]; greater than 500000 nM in data set [2]; greater than 500000 nM in [3]; 140 ± 50 nM in data set [5]; 50 ± 20 nM in data set [7]. Besides, in data set [2], the “cytotoxicity (MTT assay)” value is on record as “low toxicity; also recorded: non-toxic”. Besides, the “type of inhibition, maltase” value in data set [4] is “fully competitive”. The “Ki Maltase (Km = 3.0 mM)” value in data set [4] came out at 0.67 µg/mL. Moreover, the “Declined Rate … 15 min” value in data set [8] (1.0 mpk) was found to be 40.0%; in data set [8] (10.0 mpk, 10 mg/kg), 48.6%; in data set [11] it was 45.8%. Also, the “Declined Rate … 30 min” value in data set [8] (1.0 mpk) was found to be 40.3%; in data set [8] (10.0 mpk, 10 mg/kg), 52.8%; in data set [11], 47.4%. The “Declined Rate … 60 min” value in [8] (1.0 mpk) was 38.2%; in data set [8] (10.0 mpk, 10 mg/kg), 48.1%; in [11], 43.5%. In addition, the “Declined Rate of AUC” value in data set [8] (1.0 mpk) was found to be 34.00%; in [8] (10.0 mpk, 10 mg/kg) it was 46.4%; in [11] it was 40.2%. In addition, the “fold greater potency than acarbose, maltase” value in [5] (IC50 ratio vs acarbose) was 25 fold. Also, the affinity in [6], expressed as Ki, was 381 nM. The “type of inhibition, sucrase” value in data set [6] was “fully competitive”. Further, the “fold greater potency than acarbose, sucrase” value in data set [7] (IC50 ratio vs acarbose) was 44 fold.

`OCC(CO)N[C@H]1C[C@](O)(CO)[C@@H](O)[C@H](O)[C@H]1O` [voglibose]: the IC50 in [5] came out at 1450 nM. For the same molecule, in data set [11], the “Declined Rate … 15 min” value was 49.2%; the “Declined Rate … 30 min” value was found to be 53.7%; the “Declined Rate … 60 min” value is 40.1%; the “Declined Rate of AUC” value was determined as 39.8%. Besides, in data set [7] (setting [12]), the IC50 is 350 nM. Also, in [9] (literature value ^[a]), the IC50 is 1500 nM.
